Broadly, the inhibition is the change of the read-out against control, counted positive when it falls.

Experiment [1] has as its target T1, hFASN enzyme (full length) (Homo sapiens, UniProt P49327).
T1 construct: 10 μL hFASN enzyme (full length, 300 ng, purified in house); made in house
Briefly: Fatty Acid Synthase (FASN) inhibition scintillation proximity assay. It is filed as biochemical. The settings on record: for inhibition at 10 µM: read-out: Human FASN % inhibition @ 10 μM, 10 μM test compound; for IC50: read-out: Human FASN pIC50 (converted). The method, boiled down:
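Full-length in-house purified enzyme (300 ng) was tested in 100 mM KH2PO4 pH 7.5, 1 mM DTT with ³H-acetyl-CoA and malonyl-CoA as substrates; compounds ranged 0.01–30 μM. Reactions were stopped with streptavidin imaging beads, read by LEADseeker at 610 nm, and fitted to a 4-parameter logistic curve.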
A general note: Scintillation proximity formats need no separation of bound from free tracer.

Experiment [2] relates to A2780 ovarian cells. The experiment is described as follows: A2780 ovarian cell proliferation assay in lipid reduced medium, with palmitate (MTT). It is filed as cell-based. The settings on record: Homo sapiens, A2780, 96 h; read-out: pIC50 A2780 Ovarian Cell, With Palmitate (converted). The essentials:
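Seeded cells were switched next day to lipid-reduced serum, exposed to compound and 25 μM palmitate complexed with fatty-acid-free BSA, and incubated 96 h. Proliferation was then determined by MTT absorbance at 544 nm, with a best-fit curve of signal against concentration.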

The subject of experiment [3] is A2780 ovarian cells. The experiment is described as follows: A2780 ovarian cell proliferation assay in lipid reduced medium, without palmitate (MTT). It is filed as cell-based. Conditions: Homo sapiens, A2780, 96 h; read-out: pIC50 A2780 Ovarian Cell, Without Palmitate (converted).
In experiment [4] the test system is LNCaP-Vancouver prostate cells. The experiment is described as follows: In vitro LNCaP Vancouver prostate cell proliferation assay in lipid reduced medium. Conditions: read-out: pIC50 LNCaP_Vancouver prostate cell (converted). It is filed as cell-based.
The test system of experiment [5] is PC-3M-Luc-C6 prostate cells. The experiment is described as follows: In vitro PC-3M-Luc-C6 prostate cell proliferation assay in lipid reduced medium. It is filed as cell-based. Conditions: 96 h, read-out: pIC50 PC-3M-Luc-C6 prostate cell (converted).
Experiment [6] concerns the target Fatty Acid Synthase Keto-reductase Domain (FASN KR) (Homo sapiens, UniProt P49327). The experiment is described as follows: Fatty Acid Synthase keto-reductase domain (FASN KR) inhibition, NADPH oxidation at 340 nm.
Method: After 20 minutes incubation at room temperature the plate was measured again (T2).
The decrease in absorbance was calculated as (Absorbance before incubation T1)−(Absorbance following incubation T2).
A plot of Controlmin versus test compound concentration was fitted to a 4-parameter logistic curve using a non-linear least squares regression method.

T1 sequence (P49327 whole entry): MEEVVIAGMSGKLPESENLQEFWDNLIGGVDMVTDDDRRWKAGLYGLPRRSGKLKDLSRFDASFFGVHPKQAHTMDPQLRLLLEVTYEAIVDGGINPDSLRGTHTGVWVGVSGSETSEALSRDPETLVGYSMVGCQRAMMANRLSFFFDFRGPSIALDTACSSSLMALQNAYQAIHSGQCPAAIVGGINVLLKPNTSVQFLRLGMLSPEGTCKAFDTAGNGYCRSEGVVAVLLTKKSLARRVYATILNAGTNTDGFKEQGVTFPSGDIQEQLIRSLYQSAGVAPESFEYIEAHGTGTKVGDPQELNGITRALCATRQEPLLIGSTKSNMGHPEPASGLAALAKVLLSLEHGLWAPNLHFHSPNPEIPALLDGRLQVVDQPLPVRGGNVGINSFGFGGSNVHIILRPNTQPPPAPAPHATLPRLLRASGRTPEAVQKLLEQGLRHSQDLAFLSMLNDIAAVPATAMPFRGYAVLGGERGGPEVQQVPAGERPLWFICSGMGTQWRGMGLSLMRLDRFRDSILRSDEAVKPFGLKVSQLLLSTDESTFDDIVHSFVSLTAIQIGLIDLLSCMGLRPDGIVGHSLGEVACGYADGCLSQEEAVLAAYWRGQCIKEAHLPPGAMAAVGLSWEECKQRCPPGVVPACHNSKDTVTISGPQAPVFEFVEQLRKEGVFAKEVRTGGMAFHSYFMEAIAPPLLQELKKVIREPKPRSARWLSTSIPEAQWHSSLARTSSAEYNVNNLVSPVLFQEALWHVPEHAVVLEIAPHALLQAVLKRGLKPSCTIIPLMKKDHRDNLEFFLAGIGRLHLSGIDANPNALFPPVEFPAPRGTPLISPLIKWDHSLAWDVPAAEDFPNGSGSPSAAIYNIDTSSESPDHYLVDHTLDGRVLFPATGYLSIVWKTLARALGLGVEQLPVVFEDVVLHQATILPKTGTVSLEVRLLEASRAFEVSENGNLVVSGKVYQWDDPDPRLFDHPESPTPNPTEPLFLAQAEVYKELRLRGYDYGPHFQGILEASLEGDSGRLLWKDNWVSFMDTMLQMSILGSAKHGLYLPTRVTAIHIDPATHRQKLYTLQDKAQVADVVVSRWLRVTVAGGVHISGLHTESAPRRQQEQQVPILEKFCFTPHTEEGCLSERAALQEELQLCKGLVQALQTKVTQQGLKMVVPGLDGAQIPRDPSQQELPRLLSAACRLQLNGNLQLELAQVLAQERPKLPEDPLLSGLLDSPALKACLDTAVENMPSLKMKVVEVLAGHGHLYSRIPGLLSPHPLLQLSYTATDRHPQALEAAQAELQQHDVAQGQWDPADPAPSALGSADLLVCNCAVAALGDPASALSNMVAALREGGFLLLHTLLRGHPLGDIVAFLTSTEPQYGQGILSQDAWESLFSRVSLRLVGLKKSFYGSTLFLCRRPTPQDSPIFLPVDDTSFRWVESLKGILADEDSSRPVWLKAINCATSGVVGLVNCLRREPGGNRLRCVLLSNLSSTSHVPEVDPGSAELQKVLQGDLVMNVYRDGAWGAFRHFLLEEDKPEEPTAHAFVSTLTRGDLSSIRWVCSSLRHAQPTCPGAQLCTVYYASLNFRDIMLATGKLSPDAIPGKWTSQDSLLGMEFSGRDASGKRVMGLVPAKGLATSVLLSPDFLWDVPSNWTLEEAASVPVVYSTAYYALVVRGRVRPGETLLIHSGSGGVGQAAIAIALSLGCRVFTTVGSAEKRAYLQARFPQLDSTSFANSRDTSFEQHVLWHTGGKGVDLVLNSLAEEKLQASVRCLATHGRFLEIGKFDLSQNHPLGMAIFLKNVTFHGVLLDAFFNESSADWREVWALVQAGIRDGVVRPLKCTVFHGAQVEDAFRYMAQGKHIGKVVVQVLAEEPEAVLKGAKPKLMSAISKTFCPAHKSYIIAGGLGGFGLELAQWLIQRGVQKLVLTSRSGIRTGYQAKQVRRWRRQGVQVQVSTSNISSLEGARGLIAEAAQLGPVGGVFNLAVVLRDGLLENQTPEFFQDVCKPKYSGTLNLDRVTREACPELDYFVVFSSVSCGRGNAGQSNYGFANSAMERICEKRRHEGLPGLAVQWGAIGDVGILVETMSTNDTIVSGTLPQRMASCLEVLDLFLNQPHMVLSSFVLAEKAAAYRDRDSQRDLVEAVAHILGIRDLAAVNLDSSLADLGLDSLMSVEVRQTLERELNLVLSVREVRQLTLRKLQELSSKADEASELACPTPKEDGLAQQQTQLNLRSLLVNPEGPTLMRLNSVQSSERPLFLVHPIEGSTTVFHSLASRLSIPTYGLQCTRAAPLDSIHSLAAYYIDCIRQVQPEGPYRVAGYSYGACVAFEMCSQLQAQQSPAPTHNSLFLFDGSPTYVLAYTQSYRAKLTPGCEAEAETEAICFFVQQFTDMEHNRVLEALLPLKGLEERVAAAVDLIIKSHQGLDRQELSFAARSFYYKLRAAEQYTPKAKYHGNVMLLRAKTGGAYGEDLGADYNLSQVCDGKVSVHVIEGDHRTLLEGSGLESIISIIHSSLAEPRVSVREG
Fatty Acid Synthase Keto-reductase Domain (FASN KR), sequence (P49327 whole entry, the tested form may be a part): as the sequence (P49327 whole entry) above

Regarding `Cc1cc(-c2ccc3cc(C#N)ccc3c2)ccc1C1=NC2(CC2)C(=O)N1CC1CN(C(=O)C2(F)CC2)C1` [compound 273, 6-(4-(6-((1-(1-fluorocyclopropanecarbonyl)azetidin-3-yl)methyl)-7-oxo-4,6-diazaspiro[2.4]hept-4-en-5-yl)-3-methylphenyl)-2-naphthonitrile], the inhibition at 10 µM in experiment [1] is 102%. For the same molecule, the IC50 in experiment [1] is 42.7 nM; in the experiment with A2780 ovarian cells [2] it was 7940 nM; with A2780 ovarian cells [3] it was about 20.9 nM; in experiment [4] it was 355 nM; in experiment [5], 67.6 nM; in experiment [6] it was 145 nM.
As for `O=C(C1CC1)N1CC(CN2C(=O)C3(CC3)N=C2c2ccc(-c3nc4ccc(Cl)cc4s3)cc2F)C1` [compound 274, 5-(4-(6-chlorobenzo[d]thiazol-2-yl)-2-fluorophenyl)-6-((1-(cyclopropanecarbonyl)azetidin-3-yl)methyl)-4,6-diazaspiro[2.4]hept-4-en-7-one], the inhibition at 10 µM in experiment [1] was 101%. Moreover, the IC50 in experiment [1] was 50.1 nM; with A2780 ovarian cells [2], 7240 nM; in the experiment with A2780 ovarian cells [3], about 24 nM; in experiment [4] it was 339 nM; in experiment [5] it was 46.8 nM; in experiment [6], 100 nM.
In the case of `Cc1cc(-c2ccc3oc(C)c(C)c3c2)ccc1C1=NC2(CC2)C(=O)N1C[C@@H]1CCN(C(=O)C2CC2)C1` [compound 282, (R)-6-((1-(cyclopropanecarbonyl)pyrrolidin-3-yl)methyl)-5-(4-(2,3-dimethylbenzofuran-5-yl)-2-methylphenyl)-4,6-diazaspiro[2.4]hept-4-en-7-one], the inhibition at 10 µM in experiment [1] stood at 106%. For the same molecule, the IC50 is 87.1 nM in experiment [1]; over 10000 nM with A2780 ovarian cells [2]; about 2090 nM in the experiment on A2780 ovarian cells [3]; about 2140 nM in experiment [4]; about 1700 nM in experiment [5]; 224 nM in experiment [6].
Consider `Cc1cc(-c2ccc3[nH]ccc3c2)ccc1C1=NC2(CC2)C(=O)N1C[C@@H]1CCN(C(=O)C2CC2)C1` [compound 284, (R)-5-(4-(1H-indol-5-yl)-2-methylphenyl)-6-((1-(cyclopropanecarbonyl)pyrrolidin-3-yl)methyl)-4,6-diazaspiro[2.4]hept-4-en-7-one], for which the inhibition at 10 µM in experiment [1] stood at 106%. For the same molecule, the IC50 in experiment [1] is 25.7 nM; with A2780 ovarian cells [2], over 10000 nM; in the experiment with A2780 ovarian cells [3] it was about 23.4 nM; in experiment [4], 38 nM; in experiment [5] it was 18.2 nM; in experiment [6] it was 30.9 nM.
For `Cc1cc(-c2ccc3[nH]ncc3c2)ccc1C1=NC2(CC2)C(=O)N1C[C@@H]1CCN(C(=O)C2CC2)C1` [compound 286, (R)-5-(4-(1H-indazol-5-yl)-2-methylphenyl)-6-((1-(cyclopropanecarbonyl)pyrrolidin-3-yl)methyl)-4,6-diazaspiro[2.4]hept-4-en-7-one], the inhibition at 10 µM in experiment [1] amounted to 103%. Also, the IC50 was 43.7 nM in experiment [1]; over 10000 nM in the experiment with A2780 ovarian cells [2]; about 21.4 nM in the experiment on A2780 ovarian cells [3]; 123 nM in experiment [4]; 25.1 nM in experiment [5]; 60.3 nM in experiment [6].
Take `Cc1cc(-c2ccc3sccc3c2)ccc1C1=NC2(CC2)C(=O)N1CC1CN(C(=O)C2CC2)C1` [compound 288]: in experiment [1], the inhibition at 10 µM was found to be 107%. Besides, the IC50 was 26.9 nM in experiment [1]; over 10000 nM with A2780 ovarian cells [2]; about 107 nM in the experiment on A2780 ovarian cells [3]; 537 nM in experiment [4]; 77.6 nM in experiment [5]; 53.7 nM in experiment [6].
On to `Cc1cc(-c2ccc3sc(C)c(C)c3c2)ccc1C1=NC2(CC2)C(=O)N1CC1CN(C(=O)C2CC2)C1` [compound 290, 6-((1-(cyclopropanecarbonyl)azetidin-3-yl)methyl)-5-(4-(2,3-dimethylbenzo[b]thiophen-5-yl)-2-methylphenyl)-4,6-diazaspiro[2.4]hept-4-en-7-one], for which, in experiment [1], the inhibition at 10 µM worked out at 110%. Also, the IC50 in experiment [1] is 79.4 nM; in the experiment on A2780 ovarian cells [2] it was over 10000 nM; in the experiment with A2780 ovarian cells [3], about 1950 nM; in experiment [4], about 2140 nM; in experiment [5] it was about 1170 nM; in experiment [6], 331 nM.
Consider `Cc1cc(-c2ccc3[nH]ccc3c2)ccc1C1=NC2(CC2)C(=O)N1CC1CN(C(=O)C2CC2)C1` [compound 291, 5-(4-(1H-indol-5-yl)-2-methylphenyl)-6-((1-(cyclopropanecarbonyl)azetidin-3-yl)methyl)-4,6-diazaspiro[2.4]hept-4-en-7-one], for which the inhibition at 10 µM in experiment [1] was 108%. Moreover, the IC50 in experiment [1] was 27.5 nM; with A2780 ovarian cells [2], over 10000 nM; in the experiment on A2780 ovarian cells [3] it was 45.7 nM; in experiment [4] it was 295 nM; in experiment [5], about 42.7 nM; in experiment [6], 38 nM.
For the molecule `Cc1cc(-c2ccc3c(cnn3C)c2)ccc1C1=NC2(CC2)C(=O)N1CC1CN(C(=O)C2CC2)C1` [compound 292, 6-((1-(cyclopropanecarbonyl)azetidin-3-yl)methyl)-5-(2-methyl-4-(1-methyl-1H-indazol-5-yl)phenyl)-4,6-diazaspiro[2.4]hept-4-en-7-one], the inhibition at 10 µM in experiment [1] stood at 100%. The IC50 in experiment [1] is 87.1 nM; in the experiment on A2780 ovarian cells [2] it was over 10000 nM; in the experiment on A2780 ovarian cells [3], 126 nM; in experiment [4], 692 nM; in experiment [5] it was 178 nM; in experiment [6], 245 nM.
`Cc1cc(-c2ccc3[nH]ncc3c2)ccc1C1=NC2(CC2)C(=O)N1CC1CN(C(=O)C2CC2)C1` [compound 293, 5-(4-(1H-indazol-5-yl)-2-methylphenyl)-6-((1-(cyclopropanecarbonyl)azetidin-3-yl)methyl)-4,6-diazaspiro[2.4]hept-4-en-7-one]: the inhibition at 10 µM in experiment [1] was 105%. The IC50 in experiment [1] is 38 nM; with A2780 ovarian cells [2], over 10000 nM; in the experiment with A2780 ovarian cells [3] it was 87.1 nM; in experiment [4], about 513 nM; in experiment [5] it was about 141 nM; in experiment [6], 174 nM.
Regarding `Cc1cc2cc(-c3ccc(C4=NC5(CC5)C(=O)N4C[C@@H]4CCN(C(=O)C5CC5)C4)cc3)ccc2s1` [compound 295, (R)-6-((1-(cyclopropanecarbonyl)pyrrolidin-3-yl)methyl)-5-(4-(2-methylbenzo[b]thiophen-5-yl)phenyl)-4,6-diazaspiro[2.4]hept-4-en-7-one], the inhibition at 10 µM in experiment [1] was 100%. Moreover, the IC50 in experiment [1] is 53.7 nM; in the experiment with A2780 ovarian cells [2], over 10000 nM; in the experiment with A2780 ovarian cells [3] it was 631 nM; in experiment [4] it was 1290 nM; in experiment [5], about 575 nM; in experiment [6], 105 nM.
Take `O=C(C1CC1)N1CC[C@@H](CN2C(=O)C3(CC3)N=C2c2ccc(-c3ccc4sccc4c3)cc2)C1` [compound 298, (R)-5-(4-(benzo[b]thiophen-5-yl)phenyl)-6-((1-(cyclopropanecarbonyl)pyrrolidin-3-yl)methyl)-4,6-diazaspiro[2.4]hept-4-en-7-one]: the inhibition at 10 µM in experiment [1] turned out to be 100%. Also, the IC50 in experiment [1] was 21.9 nM; with A2780 ovarian cells [2] it was over 10000 nM; with A2780 ovarian cells [3], 58.9 nM; in experiment [4] it was 617 nM; in experiment [5], 66.1 nM; in experiment [6], 26.9 nM.
On to `O=C(C1CC1)N1CC(CN2C(=O)C3(CC3)N=C2c2ccc(-c3ccc4cc[nH]c4c3)cc2)C1` [compound 299, 5-(4-(1H-indol-6-yl)phenyl)-6-((1-(cyclopropanecarbonyl)azetidin-3-yl)methyl)-4,6-diazaspiro[2.4]hept-4-en-7-one], for which the inhibition at 10 µM in experiment [1] was found to be 101%. Moreover, the IC50 in experiment [1] was 22.9 nM; in the experiment on A2780 ovarian cells [2] it was over 10000 nM; in the experiment on A2780 ovarian cells [3], 30.9 nM; in experiment [4] it was 234 nM; in experiment [5] it was 38.9 nM; in experiment [6] it was 58.9 nM.
`O=C(C1CC1)N1CC(CN2C(=O)C3(CC3)N=C2c2ccc(-c3cccc4[nH]ncc34)cc2)C1` [compound 300, 5-(4-(1H-indazol-4-yl)phenyl)-6-((1-(cyclopropanecarbonyl)azetidin-3-yl)methyl)-4,6-diazaspiro[2.4]hept-4-en-7-one]: in experiment [1], the inhibition at 10 µM came to 102%. The IC50 in experiment [1] was 57.5 nM; with A2780 ovarian cells [2], over 10000 nM; in the experiment with A2780 ovarian cells [3], 74.1 nM; in experiment [4] it was 1910 nM; in experiment [5] it was 123 nM; in experiment [6], 126 nM.
With `O=C(C1CC1)N1CC[C@@H](CN2C(=O)C3(CC3)N=C2c2ccc(-c3ccc4cc[nH]c4c3)cc2)C1` [compound 301, (R)-5-(4-(1H-indol-6-yl)phenyl)-6-((1-(cyclopropanecarbonyl)pyrrolidin-3-yl)methyl)-4,6-diazaspiro[2.4]hept-4-en-7-one], the inhibition at 10 µM in experiment [1] amounted to 99%. Moreover, the IC50 is 20 nM in experiment [1]; over 10000 nM in the experiment with A2780 ovarian cells [2]; 14.8 nM with A2780 ovarian cells [3]; 275 nM in experiment [4]; 12 nM in experiment [5]; 27.5 nM in experiment [6].

The values are drawn from US10077261B2, “Imidazolin-5-one derivative useful as FASN inhibitors for the treatment of cancer” (Janssen Pharmaceutica NV, priority 2012, dated 2018).
